Activity data for seven compounds are collected here from ChEMBL document CHEMBL3046293, “Fungicidal Activities of -Methoxyphenylacetic Acid Derivatives” (2002).

Common to all, as to format: functional
Test [1] relates to Botrytis cinerea. Nature of the test: Fungicidal activity against Botryotinia fuckeliana assessed as cucumber gray mold disease control at 7.8 ppm treated 24 hr before inoculation by preventive manner.
The test system of test [2] is Pyricularia oryzae. Nature of the test: Fungicidal activity against Magnaporthe oryzae Cav. race 003 assessed as rice blast disease control at 31.3 ppm treated 24 hr before inoculation by preventive manner.
In test [3] the test system is Podosphaera fuliginea. Nature of the test: Fungicidal activity against Podosphaera fuliginea assessed as cucumber powdery mildew disease control at 7.8 ppm treated 24 hr before inoculation by preventive manner.
The subject of test [4] is Thanatephorus cucumeris. The test can be described thus: Fungicidal activity against Thanatephorus cucumeris assessed as rice sheath blight disease control at 7.8 ppm foliar application for 24 hr before inoculation by preventive manner.
Test [5] concerns Thanatephorus cucumeris. Nature of the test: Fungicidal activity against Thanatephorus cucumeris assessed as rice sheath blight disease control at 31.3 ppm foliar application for 24 hr before inoculation by preventive manner.
The subject of test [6] is Thanatephorus cucumeris. The test can be described thus: Fungicidal activity against Thanatephorus cucumeris assessed as rice sheath blight disease control at 125 ppm foliar application for 24 hr after inoculation by curative manner.
The subject of test [7] is Thanatephorus cucumeris. Nature of the test: Fungicidal activity against Thanatephorus cucumeris assessed as rice sheath blight disease control at 31.3 ppm foliar application for 24 hr after inoculation by curative manner.
The subject of test [8] is Thanatephorus cucumeris. Nature of the test: Fungicidal activity against Thanatephorus cucumeris assessed as rice sheath blight disease control at 7.8 ppm foliar application for 24 hr after inoculation by curative manner.
Test [9] deals with Thanatephorus cucumeris. Nature of the test: Fungicidal activity against Thanatephorus cucumeris assessed as rice sheath blight disease control at 2 ppm foliar application for 24 hr after inoculation by curative manner.
For test [10], the system named is Thanatephorus cucumeris. Nature of the test: Fungicidal activity against Thanatephorus cucumeris assessed as rice sheath blight disease control at 125 ppm foliar application for 24 hr before inoculation by preventive manner.
Test [11] deals with Thanatephorus cucumeris. The test can be described thus: Fungicidal activity against Thanatephorus cucumeris assessed as rice sheath blight disease control at 2 ppm foliar application for 24 hr before inoculation by preventive manner.
The subject of test [12] is Botrytis cinerea. The test can be described thus: Fungicidal activity against Botryotinia fuckeliana assessed as cucumber gray mold disease control at 125 ppm foliar application 24 hr after inoculation by curative manner.
Test [13] deals with Botrytis cinerea. The test can be described thus: Fungicidal activity against Botryotinia fuckeliana assessed as cucumber gray mold disease control at 7.8 ppm foliar application 24 hr before inoculation by preventive manner.
In test [14] the test system is Botrytis cinerea. The test can be described thus: Fungicidal activity against Botryotinia fuckeliana assessed as cucumber gray mold disease control at 2 ppm foliar application 24 hr after inoculation by curative manner.
Test [15] concerns Botrytis cinerea. Nature of the test: Fungicidal activity against Botryotinia fuckeliana assessed as cucumber gray mold disease control at 7.8 ppm foliar application 24 hr after inoculation by curative manner.
Test [16] has as its system Botrytis cinerea. The test can be described thus: Fungicidal activity against Botryotinia fuckeliana assessed as cucumber gray mold disease control at 31.3 ppm foliar application 24 hr after inoculation by curative manner.
The subject of test [17] is Botrytis cinerea. Nature of the test: Fungicidal activity against Botryotinia fuckeliana assessed as cucumber gray mold disease control at 125 ppm foliar application 24 hr before inoculation by preventive manner.
The test system of test [18] is Botrytis cinerea. Nature of the test: Fungicidal activity against Botryotinia fuckeliana assessed as cucumber gray mold disease control at 2 ppm foliar application 24 hr before inoculation by preventive manner.
The test system of test [19] is Botrytis cinerea. Nature of the test: Fungicidal activity against Botryotinia fuckeliana assessed as cucumber gray mold disease control at 31.3 ppm foliar application 24 hr before inoculation by preventive manner.
Test [20] concerns Podosphaera fuliginea. Nature of the test: Fungicidal activity against Podosphaera fuliginea assessed as cucumber powdery mildew control at 2 ppm foliar application 24 hr before inoculation by preventive manner.
The test system of test [21] is Podosphaera fuliginea. The test can be described thus: Fungicidal activity against Podosphaera fuliginea assessed as cucumber powdery mildew control at 2 ppm foliar application 24 hr after inoculation by curative manner.
Test [22] deals with Podosphaera fuliginea. Nature of the test: Fungicidal activity against Podosphaera fuliginea assessed as cucumber powdery mildew control at 0.125 ppm foliar application 24 hr before inoculation by preventive manner.
The subject of test [23] is Podosphaera fuliginea. The test can be described thus: Fungicidal activity against Podosphaera fuliginea assessed as cucumber powdery mildew control at 0.5 ppm foliar application 24 hr before inoculation by preventive manner.
The test system of test [24] is Podosphaera fuliginea. Nature of the test: Fungicidal activity against Podosphaera fuliginea assessed as cucumber powdery mildew control at 0.125 ppm foliar application 24 hr after inoculation by curative manner.
The subject of test [25] is Podosphaera fuliginea. The test can be described thus: Fungicidal activity against Podosphaera fuliginea assessed as cucumber powdery mildew control at 7.8 ppm foliar application 24 hr after inoculation by curative manner.
In test [26] the test system is Podosphaera fuliginea. The test can be described thus: Fungicidal activity against Podosphaera fuliginea assessed as cucumber powdery mildew control at 0.5 ppm foliar application 24 hr after inoculation by curative manner.
Test [27] relates to Podosphaera fuliginea. The test can be described thus: Fungicidal activity against Podosphaera fuliginea assessed as cucumber powdery mildew control at 7.8 ppm foliar application 24 hr before inoculation by preventive manner.
Test [28] has as its system Pyricularia oryzae. Nature of the test: Fungicidal activity against Magnaporthe oryzae Cav. race 003 assessed as rice blast disease control at 125 ppm foliar application for 24 hr before inoculation by preventive manner.
For test [29], the system named is Pyricularia oryzae. Nature of the test: Fungicidal activity against Magnaporthe oryzae Cav. race 003 assessed as rice blast disease control at 31.3 ppm foliar application for 24 hr before inoculation by preventive manner.
Test [30] relates to Pyricularia oryzae. Nature of the test: Fungicidal activity against Magnaporthe oryzae Cav. race 003 assessed as rice blast disease control at 2 ppm foliar application for 24 hr before inoculation by preventive manner.
Test [31] has as its system Pyricularia oryzae. The test can be described thus: Fungicidal activity against Magnaporthe oryzae Cav. race 003 assessed as rice blast disease control at 7.8 ppm foliar application for 24 hr before inoculation by preventive manner.
In test [32] the test system is Blumeria graminis. The test can be described thus: Fungicidal activity against Blumeria graminis f. sp. tritici assessed as wheat powdery mildew disease control at 125 ppm foliar application for 24 hr before inoculation by preventive manner.
Test [33] concerns Pseudoperonospora cubensis. Nature of the test: Fungicidal activity against Pseudoperonospora cubensis assessed as cucumber downy mildew disease control at 7.8 ppm foliar application 24 hr before inoculation onto the abaxial(treated) surface of leaf by preventive manner.
For test [34], the system named is Pseudoperonospora cubensis. Nature of the test: Fungicidal activity against Pseudoperonospora cubensis assessed as cucumber downy mildew disease control at 2 ppm foliar application 24 hr before inoculation onto the abaxial(treated) surface of leaf by preventive manner.
The subject of test [35] is Blumeria graminis. Nature of the test: Fungicidal activity against Blumeria graminis f. sp. tritici assessed as wheat powdery mildew disease control at 31.3 ppm foliar application for 24 hr before inoculation by preventive manner.
For test [36], the system named is Blumeria graminis. Nature of the test: Fungicidal activity against Blumeria graminis f. sp. tritici assessed as wheat powdery mildew disease control at 2 ppm foliar application for 24 hr before inoculation by preventive manner.
Test [37] concerns Blumeria graminis. The test can be described thus: Fungicidal activity against Blumeria graminis f. sp. tritici assessed as wheat powdery mildew disease control at 31.3 ppm foliar application for 24 hr after inoculation by curative manner.
Test [38] deals with Pseudoperonospora cubensis. The test can be described thus: Fungicidal activity against Pseudoperonospora cubensis assessed as cucumber downy mildew disease control at 31.3 ppm foliar application 24 hr before inoculation onto the abaxial(treated) surface of leaf by preventive manner.
Test [39] has as its system Blumeria graminis. The test can be described thus: Fungicidal activity against Blumeria graminis f. sp. tritici assessed as wheat powdery mildew disease control at 7.8 ppm foliar application for 24 hr after inoculation by curative manner.
In test [40] the test system is Blumeria graminis. Nature of the test: Fungicidal activity against Blumeria graminis f. sp. tritici assessed as wheat powdery mildew disease control at 2 ppm foliar application for 24 hr after inoculation by curative manner.
The subject of test [41] is Pseudoperonospora cubensis. The test can be described thus: Fungicidal activity against Pseudoperonospora cubensis assessed as cucumber downy mildew disease control at 125 ppm foliar application 24 hr before inoculation onto the adaxial(treated) surface of leaf by preventive manner.
Test [42] deals with Pseudoperonospora cubensis. Nature of the test: Fungicidal activity against Pseudoperonospora cubensis assessed as cucumber downy mildew disease control at 7.8 ppm foliar application 24 hr after inoculation by curative manner.
For test [43], the system named is Pseudoperonospora cubensis. Nature of the test: Fungicidal activity against Pseudoperonospora cubensis assessed as cucumber downy mildew disease control at 2 ppm foliar application 24 hr after inoculation by curative manner.
The test system of test [44] is Pseudoperonospora cubensis. The test can be described thus: Fungicidal activity against Pseudoperonospora cubensis assessed as cucumber downy mildew disease control at 31.3 ppm foliar application 24 hr after inoculation by curative manner.
The test system of test [45] is Pseudoperonospora cubensis. Nature of the test: Fungicidal activity against Pseudoperonospora cubensis assessed as cucumber downy mildew disease control at 7.8 ppm foliar application 24 hr before inoculation onto the adaxial(treated) surface of leaf by preventive manner.
For test [46], the system named is Pseudoperonospora cubensis. Nature of the test: Fungicidal activity against Pseudoperonospora cubensis assessed as cucumber downy mildew disease control at 125 ppm foliar application 24 hr after inoculation by curative manner.
The subject of test [47] is Pseudoperonospora cubensis. The test can be described thus: Fungicidal activity against Pseudoperonospora cubensis assessed as cucumber downy mildew disease control at 2 ppm foliar application 24 hr before inoculation onto the adaxial(treated) surface of leaf by preventive manner.
Test [48] relates to Pseudoperonospora cubensis. Nature of the test: Fungicidal activity against Pseudoperonospora cubensis assessed as cucumber downy mildew disease control at 31.3 ppm foliar application 24 hr before inoculation onto the adaxial(treated) surface of leaf by preventive manner.
In test [49] the test system is Pseudoperonospora cubensis. The test can be described thus: Fungicidal activity against Pseudoperonospora cubensis assessed as cucumber downy mildew disease control at 125 ppm foliar application 24 hr before inoculation onto the abaxial(treated) surface of leaf by preventive manner.
The subject of test [50] is Blumeria graminis. The test can be described thus: Fungicidal activity against Blumeria graminis f. sp. tritici assessed as wheat powdery mildew disease control at 7.8 ppm foliar application for 24 hr before inoculation by preventive manner.
Test [51] deals with Blumeria graminis. The test can be described thus: Fungicidal activity against Blumeria graminis f. sp. tritici assessed as wheat powdery mildew disease control at 125 ppm foliar application for 24 hr after inoculation by curative manner.

Consider `CNC(=O)C(OC)c1cccc(COc2cc(C)cc(C)c2C)c1` (configuration not stated), for which the Activity in test [1] is 50%; in test [2] it was 90%; in [3], 90%.

For the compound `CC(C)Oc1cccc(NC(=O)c2ccccc2C(F)(F)F)c1` [FLUTOLANIL], the Activity was found to be 70% in [4]; 80% in test [5]; 80% in test [6]; 80% in test [7]; 70% in [8]; 40% in test [9]. The Activity was determined as 90% in test [10] and 20% in [11].

As to `CC(C)NC(=O)N1CC(=O)N(c2cc(Cl)cc(Cl)c2)C1=O` [IPRODIONE], the Activity was 80% in test [12]; 50% in [13]; 20% in [14]; 60% in test [15]; 70% in test [16]; 100% in [17]. Moreover, the Activity was 20% in test [18] and 100% in [19].

Consider `OC(c1ccc(Cl)cc1)(c1cncnc1)c1ccccc1Cl` (configuration not stated) [FENARIMOL], for which the Activity in test [20] came out at 95%; in test [21], 99%; in test [22] it was 0%; in test [23], 80%; in test [24], 80%; in test [25] it was 100%. Besides, the Activity was determined as 99% in test [26] and 100% in [27].

For the compound `C/C(=N/Nc1nc(C)cc(C)n1)c1ccccc1C` [FERIMZONE], the Activity in [28] was found to be 97%; in test [29], 90%; in test [30] it was 30%; in [31] it was 50%.

In the case of `CO/N=C(/C(=O)OC)c1ccccc1COc1ccccc1C` [KRESOXIM-METHYL], the Activity in test [32] came out at 90%; in test [20], 80%; in [33] it was 0%; in test [4], 30%; in test [12], 30%; in test [34], 0%. The Activity in test [35] was 70%; in [36], 30%; in test [21], 90%; in test [37], 90%; in test [22], 0%; in test [23], 20%. The Activity in test [38] is recorded as 0%; in [28], 97%; in [13], 50%; in [39], 70%; in test [40] it was 50%; in [24] it was 50%. For the same compound, the Activity in test [14] amounted to 0%; in test [41], 97%; in [29] it was 70%; in test [5] it was 30%; in test [25], 100%; in test [42] it was 0%. Also, the Activity in test [43] came to 0%; in test [15], 0%; in [30] it was 30%; in test [26], 80%; in test [16], 10%; in test [6], 50%. For the same compound, the Activity in test [7] was 30%; in test [8], 0%; in [44] it was 0%; in [9], 0%; in test [45], 97%; in [17], 50%. In addition, the Activity in test [46] is on record as 30%; in test [10] it was 50%; in test [47], 97%; in test [11] it was 30%; in test [48] it was 97%; in [18], 20%. For the same compound, the Activity in [49] was determined as 30%; in test [50] it was 50%; in [31], 50%; in [27] it was 97%; in [19], 50%; in test [51], 90%.

On to `CNC(=O)C(OC)c1cccc(COc2ccc(C)cc2C)c1` (configuration not stated), for which the results for the Activity in test [1], in test [2] and in test [3] were 50%, 90% and 90%, respectively.
